Data: paper PMC4705659, “Functional dichotomy in the 16S rRNA (m^1A1408) methyltransferase family and control of catalytic activity via a novel tryptophan mediated loop reorganization” (Nucleic Acids Research, 2015)

Assays:
[1] = target: T1, CacKam (Catenulispora acidiphila, UniProt C7Q5P8, W113F); assay: biochemical; type: binding
T1 construct: gene Caci_9046; full length 250 residues, N-terminal hexahistidine tag with thrombin site kept; E. coli BL21 (DE3)
From the text: (§1) isothermal titration calorimetry on CacKam

[2] = target: T2, CacKam (Catenulispora acidiphila, UniProt C7Q5P8, W203A); assay: biochemical; type: binding
T2 construct: gene Caci_9046; full length 250 residues, N-terminal hexahistidine tag with thrombin site kept; E. coli BL21 (DE3)
From the text: as §1

[3] = target: T3, CacKam (Catenulispora acidiphila, UniProt C7Q5P8, E94A); assay: biochemical
T3 construct: gene Caci_9046

[4] = target: T4, CacKam (Catenulispora acidiphila, UniProt C7Q5P8); conditions: 1 mM SAM; E. coli 30S subunits; 10 mM MgCl2; pH 7.5; 37 °C
T4 construct: gene Caci_9046

[5] = target: T5, CacKam (Catenulispora acidiphila, UniProt C7Q5P8, S201A); assay: biochemical
T5 construct: gene Caci_9046
T5 sequence (C7Q5P8 entry or part of it S201A): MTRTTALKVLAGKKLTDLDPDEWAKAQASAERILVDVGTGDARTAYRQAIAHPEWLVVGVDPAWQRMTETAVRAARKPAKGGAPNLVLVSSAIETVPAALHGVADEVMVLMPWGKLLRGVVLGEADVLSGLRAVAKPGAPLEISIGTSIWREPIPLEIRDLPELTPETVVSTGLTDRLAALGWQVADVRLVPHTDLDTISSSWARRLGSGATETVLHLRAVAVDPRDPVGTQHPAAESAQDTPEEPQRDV

T1 sequence (C7Q5P8 entry or part of it W113F): as the sequence (C7Q5P8 entry or part of it S201A) above
T2 sequence (C7Q5P8 entry or part of it W203A): as the sequence (C7Q5P8 entry or part of it S201A) above
T3 sequence (C7Q5P8 entry or part of it E94A): as the sequence (C7Q5P8 entry or part of it S201A) above
T4 sequence (C7Q5P8 entry or part of it): as the sequence (C7Q5P8 entry or part of it S201A) above

Row | SMILES | Kd [1] [µM] | Kd [2] [µM] | Kd [3] [µM] | 30S methylation, reverse transcription primer extension [4] | Kd [5] [µM]
1 | Nc1ncnc2c1ncn2[C@@H]1O[C@H](CSCC[C@H](N)C(=O)O)[C@@H](O)[C@H]1O [SAH] | 11 | 5.1 | – | – | –
2 | C[S+](CC[C@H](N)C(=O)O)C[C@H]1O[C@@H](n2cnc3c(N)ncnc32)[C@H](O)[C@@H]1O (stereo partly shown) [SAM] | 103 | 68 | 29 | Methylation by the wild-type enzyme was essentially the same under each condition as expected | 110
